Measurements as given in article PMC9401498 (Clinical Cancer Research, 2021).
“Also recorded” adds a separate entry of the source.

Test system: patients with advanced and/or treatment-refractory solid tumors
Assay: Safety and tolerability: adverse events
Format: in vivo, human
Conditions: for Alanine aminotransferase increased (treatment-related AE) / Ammonia increased (treatment-related AE) / Anemia (treatment-related AE) / Aspartate aminotransferase increased (treatment-related AE) / Blood alkaline phosphatase increased (treatment-related AE) / Blood bilirubin increased (treatment-related AE) / Blood creatinine increased (treatment-related AE) / Constipation (treatment-related AE) / Decreased appetite (treatment-related AE) / Diarrhea (treatment-related AE) / Dysgeusia (treatment-related AE) / Dyspepsia (treatment-related AE) / Fatigue (treatment-related AE) / Gastroesophageal reflux disease (treatment-related AE) / Hypomagnesemia (treatment-related AE) / Hyponatremia (treatment-related AE) / Nausea (treatment-related AE) / Neuropathy peripheral (treatment-related AE) / Patients with ≥1 treatment-emergent AE / Patients with ≥1 treatment-related AE / Photophobia (treatment-related AE) / Photopsia (treatment-related AE) / Thrombocytopenia (treatment-related AE) / Vision blurred (treatment-related AE) / Vomiting (treatment-related AE) / Weight decreased (treatment-related AE) / γ-Glutamyltransferase increased (treatment-related AE) / Abdominal distension (treatment-related AE) / Activated partial thromboplastin time prolonged (treatment-related AE): TID-fasted (n = 32)
[1] = across doses and schedules, 120 patients

With `O=C(Cc1cccc(OC(F)(F)F)c1)Nc1ccc(CCCCc2nnc(NC(=O)Cc3ccccn3)s2)nn1` [telaglenastat, Telaglenastat] the “Alanine aminotransferase increased (treatment-related AE)” value (“Alanine aminotransferase increased” below) (All grades) was 6 (18.8) n (%), the “Ammonia increased (treatment-related AE)” value (All grades) was 0 n (%) and the “Anemia (treatment-related AE)” value (All grades) was 0 n (%). The “Aspartate aminotransferase increased (treatment-related AE)” value (“Aspartate aminotransferase increased” below) (All grades) was 6 (18.8) n (%), the “Blood alkaline phosphatase increased (treatment-related AE)” value (from here on “Blood alkaline phosphatase increased”) (All grades) was 2 (6.3) n (%) and the “Blood bilirubin increased (treatment-related AE)” value (shortened to “Blood bilirubin increased”) (All grades) was 0 n (%). The “Blood creatinine increased (treatment-related AE)” value (“Blood creatinine increased” for short) (All grades) was 1 (3.1) n (%), the “Constipation (treatment-related AE)” value (All grades) was 2 (6.3) n (%) and the “Decreased appetite (treatment-related AE)” value (“Decreased appetite” for short) (All grades) was 0 n (%). The “Diarrhea (treatment-related AE)” value (All grades) was 1 (3.1) n (%), the “Dysgeusia (treatment-related AE)” value (All grades) was 1 (3.1) n (%) and the “Dyspepsia (treatment-related AE)” value (All grades) was 0 n (%). The “Fatigue (treatment-related AE)” value (All grades) was 7 (21.9) n (%), the “Gastroesophageal reflux disease (treatment-related AE)” value (“Gastroesophageal reflux disease” for short) (All grades) was 0 n (%) and the “Hypomagnesemia (treatment-related AE)” value (All grades) was 0 n (%). For the same compound, the “Hyponatremia (treatment-related AE)” value (All grades) was 0 n (%), the “Nausea (treatment-related AE)” value (All grades) was 2 (6.3) n (%) and the “Neuropathy peripheral (treatment-related AE)” value (from here on “Neuropathy peripheral”) (All grades) was 1 (3.1) n (%). For the same compound, the “Patients with ≥1 treatment-emergent AE” value (All grades) was 30 (93.8) n (%), the “Patients with ≥1 treatment-related AE” value (All grades) was 23 (71.9) n (%) and the “Photophobia (treatment-related AE)” value (All grades) was 1 (3.1) n (%). For the same compound, the “Photopsia (treatment-related AE)” value (All grades) was 1 (3.1) n (%), the “Thrombocytopenia (treatment-related AE)” value (All grades) was 0 n (%) and the “Vision blurred (treatment-related AE)” value (All grades) was 0 n (%). For the same compound, the “Vomiting (treatment-related AE)” value (All grades) was 4 (12.5) n (%), the “Weight decreased (treatment-related AE)” value (All grades) was 0 n (%) and the “γ-Glutamyltransferase increased (treatment-related AE)” value (“γ-Glutamyltransferase increased” below) (All grades) was 1 (3.1) n (%). For the same compound, the “Abdominal distension (treatment-related AE)” value (Grade 3) was 0 n (%), the “Activated partial thromboplastin time prolonged (treatment-related AE)” value (Grade 3) was 0 n (%) and the “Alanine aminotransferase increased” value (Grade 3) was 5 (15.6) n (%). For the same compound, the “Ammonia increased (treatment-related AE)” value (Grade 3) was 0 n (%), the “Anemia (treatment-related AE)” value (Grade 3) was 0 n (%) and the “Aspartate aminotransferase increased” value (Grade 3) was 3 (9.4) n (%). The “Blood alkaline phosphatase increased” value (Grade 3) was 1 (3.1) n (%), the “Blood bilirubin increased” value (Grade 3) was 0 n (%) and the “Blood creatinine increased” value (Grade 3) was 1 (3.1) n (%). The “Constipation (treatment-related AE)” value (Grade 3) was 0 n (%), the “Decreased appetite” value (Grade 3) was 0 n (%) and the “Diarrhea (treatment-related AE)” value (Grade 3) was 0 n (%). The “Dysgeusia (treatment-related AE)” value (Grade 3) was 0 n (%), the “Dyspepsia (treatment-related AE)” value (Grade 3) was 0 n (%) and the “Fatigue (treatment-related AE)” value (Grade 3) was 0 n (%). For the same compound, the “Gastroesophageal reflux disease” value (Grade 3) was 0 n (%), the “Hypomagnesemia (treatment-related AE)” value (Grade 3) was 0 n (%) and the “Hyponatremia (treatment-related AE)” value (Grade 3) was 0 n (%). The “Nausea (treatment-related AE)” value (Grade 3) was 0 n (%), the “Neuropathy peripheral” value (Grade 3) was 0 n (%) and the “Patients with ≥1 treatment-emergent AE” value (Grade 3) was 9 (28.1) n (%). For the same compound, the “Patients with ≥1 treatment-related AE” value (Grade 3) was 4 (12.5) n (%), the “Photophobia (treatment-related AE)” value (Grade 3) was 0 n (%) and the “Photopsia (treatment-related AE)” value (Grade 3) was 0 n (%). The “Thrombocytopenia (treatment-related AE)” value (Grade 3) was 0 n (%), the “Vision blurred (treatment-related AE)” value (Grade 3) was 0 n (%) and the “Vomiting (treatment-related AE)” value (Grade 3) was 0 n (%). The “Weight decreased (treatment-related AE)” value (Grade 3) was 0 n (%), the “γ-Glutamyltransferase increased” value (Grade 3) was 0 n (%) and the “Abdominal distension (treatment-related AE)” value (Grade 4) was 0 n (%). For the same compound, the “Activated partial thromboplastin time prolonged (treatment-related AE)” value (Grade 4) was 0 n (%), the “Alanine aminotransferase increased” value (Grade 4) was 0 n (%) and the “Ammonia increased (treatment-related AE)” value (Grade 4) was 0 n (%). The “Anemia (treatment-related AE)” value (Grade 4) was 0 n (%), the “Aspartate aminotransferase increased” value (Grade 4) was 2 (6.3) n (%) and the “Blood alkaline phosphatase increased” value (Grade 4) was 0 n (%). The “Blood bilirubin increased” value (Grade 4) was 0 n (%), the “Blood creatinine increased” value (Grade 4) was 0 n (%) and the “Constipation (treatment-related AE)” value (Grade 4) was 0 n (%). For the same compound, the “Decreased appetite” value (Grade 4) was 0 n (%), the “Diarrhea (treatment-related AE)” value (Grade 4) was 0 n (%) and the “Dysgeusia (treatment-related AE)” value (Grade 4) was 0 n (%). The “Dyspepsia (treatment-related AE)” value (Grade 4) was 0 n (%), the “Fatigue (treatment-related AE)” value (Grade 4) was 0 n (%) and the “Gastroesophageal reflux disease” value (Grade 4) was 0 n (%). For the same compound, the “Hypomagnesemia (treatment-related AE)” value (Grade 4) was 0 n (%), the “Hyponatremia (treatment-related AE)” value (Grade 4) was 0 n (%) and the “Nausea (treatment-related AE)” value (Grade 4) was 0 n (%). The “Neuropathy peripheral” value (Grade 4) was 0 n (%), the “Patients with ≥1 treatment-emergent AE” value (Grade 4) was 3 (9.4) n (%) and the “Patients with ≥1 treatment-related AE” value (Grade 4) was 3 (9.4) n (%). For the same compound, the “Photophobia (treatment-related AE)” value (Grade 4) was 0 n (%), the “Photopsia (treatment-related AE)” value (Grade 4) was 0 n (%) and the “Thrombocytopenia (treatment-related AE)” value (Grade 4) was 0 n (%). For the same compound, the “Vision blurred (treatment-related AE)” value (Grade 4) was 0 n (%), the “Vomiting (treatment-related AE)” value (Grade 4) was 0 n (%) and the “Weight decreased (treatment-related AE)” value (Grade 4) was 0 n (%). For the same compound, the “γ-Glutamyltransferase increased” value (Grade 4) was 1 (3.1) n (%), the “Incidence of treatment-related grade 3/4 AEs” value (TID-fasted, 7/32) was 22% and the “Patients with treatment-related AEs of any grade” value (across doses and schedules, 87/120 patients) was 72.5%. The “ALT increased, treatment-related AE of any grade” value [1] was 17%, the “AST increased, treatment-related AE of any grade” value [1] was 13% and the “Fatigue, treatment-related AE of any grade” value [1] was 23%. For the same compound, the “Nausea, treatment-related AE of any grade” value [1] was 19%, the “Photophobia, treatment-related AE of any grade” value [1] was 11% and the “Patients who died during the study-reporting period” value (all due to progressive disease (PD)) was “Seven”. For the same compound, the DLTs (dose escalation, BID-fed schedule) was “No DLTs”, the “Hy's Law criteria (drug-induced liver injury)” value (either schedule) was “no patients on either schedule met criteria for the Hy's Law; also recorded: no cases of drug-induced liver injury according to the Hy's law criteria” and the “Patients with treatment-related SAEs” value (four SAEs: ALT and AST increase (400 mg TID), blood creatinine increase (250 mg TID), grade 2 convulsion (1,000 mg BID)) was 3 patients.
